Species on record: Rattus norvegicus
Assay: DrugMatrix - Regimen: Daily Repeat
Format: toxicity, organism-based, Sprague-Dawley
Set-up: regimen Daily Repeat, gender Male, age 6-8 weeks
Conditions: in vivo, po, route oral GAVAGE, […]; for ABSOLUTE BASOPHIL / ABSOLUTE EOSINOPHIL / ABSOLUTE LYMPHOCYTE / ABSOLUTE MONOCYTE / ABSOLUTE SEGMENTED NEUTROPHIL / BASOPHIL / EOSINOPHIL / ERYTHROCYTE COUNT / HEMATOCRIT / HEMOGLOBIN / LEUKOCYTE COUNT / LYMPHOCYTE / MEAN CORPUSCULAR HEMOGLOBIN / MEAN CORPUSCULAR HEMOGLOBIN CONCENTRATION / MEAN CORPUSCULAR VOLUME / MONOCYTE / NEUTROPHIL / NUCLEATED RED BLOOD CELLS / PLATELET COUNT: tissue Blood; for ALANINE AMINOTRANSFERASE / ALBUMIN / ALKALINE PHOSPHATASE / ASPARTATE AMINOTRANSFERASE / BLOOD UREA NITROGEN / CARBON DIOXIDE / CHLORIDE / CHOLESTEROL / CREATINE PHOSPHOKINASE / CREATININE / GLUCOSE / LACTATE DEHYDROGENASE / LIPASE / PHOSPHORUS / POTASSIUM / SODIUM / TOTAL BILIRUBIN / TOTAL PROTEIN / URIC ACID: tissue Plasma
[1] = 0 mg/kg, 72 h, dose level Control, time 3 day
[2] = 0 mg/kg, 120 h, dose level Control, time 5 day
[3] = 1 mg/kg, 72 h, dose level Low, time 3 day

In the case of `C[C@H]1O[C@@H](O[C@H]2[C@@H](O)C[C@H](O[C@H]3[C@@H](O)C[C@H](O[C@H]4CC[C@@]5(C)[C@H](CC[C@@H]6[C@@H]5CC[C@]5(C)[C@@H](C7=CC(=O)OC7)CC[C@]65O)C4)O[C@@H]3C)O[C@@H]2C)C[C@H](O)[C@@H]1O` [DIGITOXIN], the “ABSOLUTE BASOPHIL” value [1] is reported as 0 CELLS/uL, the “ABSOLUTE EOSINOPHIL” value [1] is reported as 13.67 CELLS/uL and the “ABSOLUTE LYMPHOCYTE” value [1] is reported as 10069.5 CELLS/uL. For the same compound, the “ABSOLUTE MONOCYTE” value [1] was 50 CELLS/uL, the “ABSOLUTE SEGMENTED NEUTROPHIL” value [1] was 516.83 CELLS/uL and the BASOPHIL [1] was 0%. For the same compound, the EOSINOPHIL [1] was 0.17%, the “ERYTHROCYTE COUNT” value [1] was 5.44 x10E6/uL and the HEMATOCRIT [1] was 33.88%. For the same compound, the HEMOGLOBIN [1] was 13.23 G/DL, the “LEUKOCYTE COUNT” value [1] was 10.65 x10E3/uL and the LYMPHOCYTE [1] was 94.67%. The “MEAN CORPUSCULAR HEMOGLOBIN” value [1] was 24.37 pg, the “MEAN CORPUSCULAR HEMOGLOBIN CONCENTRATION” value [1] was 39.05 G/DL and the “MEAN CORPUSCULAR VOLUME” value [1] was 62.38 fL. For the same compound, the MONOCYTE [1] was 0.67%, the NEUTROPHIL [1] was 4.5% and the “NUCLEATED RED BLOOD CELLS” value [1] was 0.33 /100WBC. For the same compound, the “PLATELET COUNT” value [1] was 414.5 x10E3/uL, the “ALANINE AMINOTRANSFERASE” value [1] was 72 u/L and the ALBUMIN [1] was 3.75 G/DL. For the same compound, the “ALKALINE PHOSPHATASE” value [1] was 375 u/L, the “ASPARTATE AMINOTRANSFERASE” value [1] was 87.5 u/L and the “BLOOD UREA NITROGEN” value [1] was 14 mg/dL. The “CARBON DIOXIDE” value [1] was 27.5 mmol/L, the CHLORIDE [1] was 95.83 MEQ/L and the CHOLESTEROL [1] was 68.5 mg/dL. The “CREATINE PHOSPHOKINASE” value [1] was 284.33 u/L, the CREATININE [1] was 0.16 mg/dL and the GLUCOSE [1] was 156.67 mg/dL. For the same compound, the “LACTATE DEHYDROGENASE” value [1] was 101.83 u/L, the LIPASE [1] was 9.67 u/L and the PHOSPHORUS [1] was 10.33 mg/dL. The POTASSIUM [1] was 5.22 MEQ/L, the SODIUM [1] was 137.67 MEQ/L and the “TOTAL BILIRUBIN” value [1] was 0.13 mg/dL. The “TOTAL PROTEIN” value [1] was 5.43 G/DL, the “URIC ACID” value [1] was 0.8 mg/dL and the “ABSOLUTE BASOPHIL” value [2] was 0 CELLS/uL. The “ABSOLUTE EOSINOPHIL” value [2] was 20.67 CELLS/uL, the “ABSOLUTE LYMPHOCYTE” value [2] was 11518.33 CELLS/uL and the “ABSOLUTE MONOCYTE” value [2] was 47 CELLS/uL. For the same compound, the “ABSOLUTE SEGMENTED NEUTROPHIL” value [2] was 614 CELLS/uL, the BASOPHIL [2] was 0% and the EOSINOPHIL [2] was 0.17%. For the same compound, the “ERYTHROCYTE COUNT” value [2] was 5.61 x10E6/uL, the HEMATOCRIT [2] was 34.25% and the HEMOGLOBIN [2] was 13.38 G/DL. For the same compound, the “LEUKOCYTE COUNT” value [2] was 12.2 x10E3/uL, the LYMPHOCYTE [2] was 94.33% and the “MEAN CORPUSCULAR HEMOGLOBIN” value [2] was 23.83 pg. The “MEAN CORPUSCULAR HEMOGLOBIN CONCENTRATION” value [2] was 39.08 G/DL, the “MEAN CORPUSCULAR VOLUME” value [2] was 61.03 fL and the MONOCYTE [2] was 0.33%. For the same compound, the NEUTROPHIL [2] was 5.17%, the “NUCLEATED RED BLOOD CELLS” value [2] was 0 /100WBC and the “PLATELET COUNT” value [2] was 941.83 x10E3/uL. The “ALANINE AMINOTRANSFERASE” value [2] was 68.83 u/L, the ALBUMIN [2] was 4.12 G/DL and the “ALKALINE PHOSPHATASE” value [2] was 492.67 u/L. The “ASPARTATE AMINOTRANSFERASE” value [2] was 83.33 u/L, the “BLOOD UREA NITROGEN” value [2] was 14 mg/dL and the “CARBON DIOXIDE” value [2] was 37 mmol/L. For the same compound, the CHLORIDE [2] was 98.67 MEQ/L, the CHOLESTEROL [2] was 56.5 mg/dL and the “CREATINE PHOSPHOKINASE” value [2] was 167.33 u/L. For the same compound, the CREATININE [2] was 0.17 mg/dL, the GLUCOSE [2] was 157.5 mg/dL and the “LACTATE DEHYDROGENASE” value [2] was 104.83 u/L. The LIPASE [2] was 10 u/L, the PHOSPHORUS [2] was 10.43 mg/dL and the POTASSIUM [2] was 5.46 MEQ/L. The SODIUM [2] was 143.87 MEQ/L, the “TOTAL BILIRUBIN” value [2] was 0.17 mg/dL and the “TOTAL PROTEIN” value [2] was 5.72 G/DL. The “URIC ACID” value [2] was 0.85 mg/dL, the “ABSOLUTE BASOPHIL” value [3] was 0 CELLS/uL and the “ABSOLUTE EOSINOPHIL” value [3] was 39.67 CELLS/uL. The “ABSOLUTE LYMPHOCYTE” value [3] was 11912.33 CELLS/uL, the “ABSOLUTE MONOCYTE” value [3] was 73.33 CELLS/uL and the “ABSOLUTE SEGMENTED NEUTROPHIL” value [3] was 641.33 CELLS/uL. For the same compound, the BASOPHIL [3] was 0%, the EOSINOPHIL [3] was 0.33% and the “ERYTHROCYTE COUNT” value [3] was 5.7 x10E6/uL. For the same compound, the HEMATOCRIT [3] was 35.6%, the HEMOGLOBIN [3] was 13.77 G/DL and the “LEUKOCYTE COUNT” value [3] was 12.67 x10E3/uL. For the same compound, the LYMPHOCYTE [3] was 93.67%, the “MEAN CORPUSCULAR HEMOGLOBIN” value [3] was 24.13 pg and the “MEAN CORPUSCULAR HEMOGLOBIN CONCENTRATION” value [3] was 38.7 G/DL. The “MEAN CORPUSCULAR VOLUME” value [3] was 62.33 fL, the MONOCYTE [3] was 0.67% and the NEUTROPHIL [3] was 5.33%. For the same compound, the “NUCLEATED RED BLOOD CELLS” value [3] was 0 /100WBC, the “PLATELET COUNT” value [3] was 661.33 x10E3/uL and the “ALANINE AMINOTRANSFERASE” value [3] was 72.67 u/L. The ALBUMIN [3] was 3.77 G/DL, the “ALKALINE PHOSPHATASE” value [3] was 495.33 u/L and the “ASPARTATE AMINOTRANSFERASE” value [3] was 95.67 u/L. The “BLOOD UREA NITROGEN” value [3] was 12 mg/dL, the “CARBON DIOXIDE” value [3] was 25.67 mmol/L and the CHLORIDE [3] was 96.33 MEQ/L. The CHOLESTEROL [3] was 70.67 mg/dL, the “CREATINE PHOSPHOKINASE” value [3] was 398.33 u/L and the CREATININE [3] was 0.17 mg/dL. For the same compound, the GLUCOSE [3] was 146.67 mg/dL, the “LACTATE DEHYDROGENASE” value [3] was 188.67 u/L and the LIPASE [3] was 11 u/L. The PHOSPHORUS [3] was 10.1 mg/dL, the POTASSIUM [3] was 5.78 MEQ/L and the SODIUM [3] was 137.9 MEQ/L. The “TOTAL BILIRUBIN” value [3] was 0.13 mg/dL and the “TOTAL PROTEIN” value [3] was 5.57 G/DL.

— ChEMBL document CHEMBL3885881, “DrugMatrix”
